Legend:
Type in all cases: in vivo
[1] = system: Abutilon theophrasti (ABUTH); experiment: Pre-emergence herbicidal activity, glasshouse pot test; set-up: key: 5=total damage to plant; 0=no damage to plant; conditions: Rate 1000 g/Ha; sprayed one day after sowing; evaluated after 13 days; scale 0-5
Description: (§1) Seeds of a variety of test species were sown in standard soil in pots. After cultivation for one day (pre-emergence) under controlled conditions in a glasshouse (at 24/16° C., day/night; 14 hours light; 65% humidity), the plants were sprayed with an aqueous spray solution derived from the formulation of the technical active ingredient in acetone/water (50:50) solution containing 0.5% Tween 20 (polyoxyethelyene sorbitan monolaurate, CAS RN 9005-64-5). The test plants were then grown in a glasshouse under controlled conditions (at 24/16° C., day/night; 14 hours light; 65% humidity) and watered twice daily. After 13 days, the test was evaluated (5=total damage to plant; 0=no damage to plant).

[2] = system: Amaranthus retroflexus (AMARE); experiment: as above; set-up: key: 5=total damage to plant; 0=no damage to plant; conditions: Rate 1000 g/Ha; sprayed one day after sowing; evaluated after 13 days; scale 0-5
Description: as §1

[3] = system: Echinochloa crus-galli (ECHCG); experiment: as above; set-up: key: 5=total damage to plant; 0=no damage to plant; conditions: Rate 1000 g/Ha; sprayed one day after sowing; evaluated after 13 days; scale 0-5
Description: as §1

[4] = system: Setaria faberi (SETFA); experiment: as above; set-up: key: 5=total damage to plant; 0=no damage to plant; conditions: Rate 1000 g/Ha; sprayed one day after sowing; evaluated after 13 days; scale 0-5
Description: as §1

[5] = system: Zea mays (ZEAMX); experiment: as above; conditions: Rate 1000 g/Ha; sprayed one day after sowing; evaluated after 13 days; scale 0-5
Description: as §1

[6] = system: Abutilon theophrasti (ABUTH); experiment: Post-emergence herbicidal activity, glasshouse pot test; set-up: key: 5=total damage to plant; 0=no damage to plant; conditions: Rate 1000 g/Ha; sprayed after 8 days cultivation; evaluated after 13 days; scale 0-5
Description: (§2) Seeds of a variety of test species were sown in standard soil in pots. After 8 days cultivation (post-emergence) under controlled conditions in a glasshouse (at 24/16° C., day/night; 14 hours light; 65% humidity), the plants were sprayed with an aqueous spray solution derived from the formulation of the technical active ingredient in acetone/water (50:50) solution containing 0.5% Tween 20 (polyoxyethelyene sorbitan monolaurate, CAS RN 9005-64-5). The test plants were then grown in a glasshouse under controlled conditions (at 24/16° C., day/night; 14 hours light; 65% humidity) and watered twice daily. After 13 days, the test was evaluated (5=total damage to plant; 0=no damage to plant).

[7] = system: Amaranthus retroflexus (AMARE); experiment: as above; set-up: key: 5=total damage to plant; 0=no damage to plant; conditions: Rate 1000 g/Ha; sprayed after 8 days cultivation; evaluated after 13 days; scale 0-5
Description: as §2

[8] = system: Echinochloa crus-galli (ECHCG); experiment: as above; set-up: key: 5=total damage to plant; 0=no damage to plant; conditions: Rate 1000 g/Ha; sprayed after 8 days cultivation; evaluated after 13 days; scale 0-5
Description: as §2

[9] = system: Setaria faberi (SETFA); experiment: as above; set-up: key: 5=total damage to plant; 0=no damage to plant; conditions: Rate 1000 g/Ha; sprayed after 8 days cultivation; evaluated after 13 days; scale 0-5
Description: as §2

[10] = system: Zea mays (ZEAMX); experiment: as above; set-up: key: 5=total damage to plant; 0=no damage to plant; conditions: Rate 1000 g/Ha; sprayed after 8 days cultivation; evaluated after 13 days; scale 0-5
Description: as §2

Row | Structure (SMILES) | ABUTH damage score, application pre-emergence [1] | AMARE damage score, application pre-emergence [2] | ECHCG damage score, application pre-emergence [3] | SETFA damage score, application pre-emergence [4] | ZEAMX damage score, application pre-emergence [5] | ABUTH damage score, application post-emergence [6] | AMARE damage score, application post-emergence [7] | ECHCG damage score, application post-emergence [8] | SETFA damage score, application post-emergence [9] | ZEAMX damage score, application post-emergence [10]
1 | C#CCN1C(=O)N(c2cc(C(C)(C)C)on2)C(O)C1C (single isomer, unassigned) [Compound A22] | 5 | 5 | 5 | 5 | 3 | 5 | 5 | 5 | 5 | 5
2 | COC(C)(C)c1cc(N2C(=O)N(C)CC2O)no1 (stereo not drawn) [Compound A9] | 5 | 5 | 5 | 5 | 3 | 5 | 5 | 5 | 5 | 5
3 | COC(C)(C)c1cc(N2C(=O)N(C)C(C)C2O)no1 (stereo not drawn) [Compound A10] | 5 | 5 | 5 | 5 | 3 | 5 | 5 | 5 | 5 | 5
4 | CN1CC(O)N(c2cc(C(C)(C)O)on2)C1=O (stereo not drawn) [Compound A11] | 5 | 5 | 5 | 4 | 2 | 5 | 5 | 5 | 4 | 3
5 | COC(C)(C)c1cc(N2C(=O)N(C)[C@H](C)C2O)no1 (stereo partly drawn) [Compound A12] | 5 | 5 | 5 | 5 | 3 | 5 | 5 | 5 | 5 | 4
6 | CON1C(=O)N(c2cc(C(C)(C)OC)on2)C(O)C1C (stereo not drawn) [Compound A13] | 5 | 5 | 5 | 5 | 2 | 5 | 5 | 5 | 5 | 4
7 | CCOC1C(O)N(c2cc(C(C)(C)OC)on2)C(=O)N1C (stereo not drawn) [Compound A14] | 5 | 5 | 5 | 5 | 2 | 5 | 5 | 5 | 5 | 4
8 | COCC1C(O)N(c2cc(C(C)(C)OC)on2)C(=O)N1C (stereo not drawn) [Compound A15] | 5 | 5 | 5 | 5 | 2 | 5 | 5 | 5 | 5 | 3
9 | CN1CC(O)N(c2cc(C(C)(C)F)no2)C1=O (stereo not drawn) [Compound A16] | 5 | 5 | 5 | 5 | 2 | 5 | 5 | 5 | 5 | 5
10 | CC1C(O)N(c2cc(C(C)(C)F)no2)C(=O)N1C (stereo not drawn) [Compound A17] | 5 | 5 | 5 | 5 | 2 | 5 | 5 | 5 | 5 | 4
11 | CON1C(=O)N(c2cc(C(C)(C)F)no2)C(O)C1C (stereo not drawn) [Compound A18] | 5 | 5 | 5 | 5 | 2 | 5 | 5 | 5 | 5 | 4
12 | CCOC1C(O)N(c2cc(C(C)(C)F)no2)C(=O)N1C (stereo not drawn) [Compound A19] | 4 | 5 | 5 | 4 | 2 | 5 | 5 | 5 | 5 | 4
13 | C[C@@H]1C(O)N(c2cc(C(C)(C)F)no2)C(=O)N1C (stereo partly drawn) [Compound A20] | 5 | 5 | 5 | 4 | 3 | 5 | 5 | 5 | 5 | 4
14 | CC(C)(C)c1cc(N2C(=O)N3COCC3C2O)no1 (stereo not drawn) [Compound A21] | 5 | 5 | 5 | 5 | 3 | 5 | 5 | 5 | 5 | 4
15 | C#CCC1C(O)N(c2cc(C(C)(C)C)on2)C(=O)N1CC#C (stereo not drawn) [Compound A23] | 5 | 5 | 4 | 5 | 2 |  |  | 5 |  | 
16 | C#CCN1CC(O)N(c2cc(C(C)(C)C)on2)C1=O (stereo not drawn) [Compound A24] | 5 | 5 | 5 | 5 | 3 |  |  | 5 |  | 
17 | CC(C)(C)c1cc(N2C(=O)N3CCCC3C2O)no1 (stereo not drawn) [Compound A25] | 5 | 5 | 5 | 4 | 4 | 5 | 5 | 5 | 5 | 5

Reference: US10499640B2, “Herbicidal compounds” (SYNGENTA PARTICIPATIONS AG, priority 2014, dated 2019)
